1 compound from patent publication US20220016101A1 (ACADIA Pharmaceuticals Inc., priority 2018, published 2022) can be followed below.

In data set [1] the test system is adults with Parkinson's disease and depression. Nature of the data set: SCOPA Sleep, open-label study in Parkinson's disease and depression. The class given is in vivo, human. The note with it: interim, first 31 patients. An excerpt: “Scale of Outcomes in Parkinson's Disease (SCOPA) Sleep” is a scale developed for research in Parkinson disease to evaluate nighttime sleep and daytime sleepiness and has high internal consistency for the nighttime sleep and daytime sleepiness scales (0.88 and 0.91, respectively), and test-retest reliabilities (0.94 and 0.89, respectively). Scores on the SCOPA Sleep Scale show high correlations between the nighttime sleep scale and the Pittsburgh Sleep Quality Index (0.83), and between the daytime sleepiness scale and the Epworth Sleepiness Scale (0.81). The coefficient of variation of both the nighttime sleep and the daytime sleepiness scale can be higher than that of the Pittsburgh Sleep Quality Index and the Epworth Sleepiness Scale, indicating a better ability to detect differences between individuals. (Marinus J, Visser M, van Hilten J J, Lammers G J, Stiggelbout A M. Sleep. 2003; 26(8):1049-1054.)
(§1) Subjects can receive treatment as either monotherapy or adjunctively if inadequately controlled with SSRI/SNRI monotherapy. A primary endpoint of the study is change from baseline to Week 8 in the Hamilton Depression Scale 17-item (HAMD-17) total score. Secondary endpoints include Clinical Global Impression (CGI) scales (improvement and severity), Scale of Outcomes in PD-Sleep (SCOPA), and quality of life as measured by EuroQol-5 dimensions-5 levels (EQ-5D-5L).
At approximately 2, 4, and 6 weeks after start of dosing of study drug subjects returned to the clinic for assessments. Safety measures, HAMD-17, C-SSRS (Columbia Suicide Severity Rating Scale), CGI-S(Clinical Global Impression-Severity), and CGI-I (Clinical Global Impression-Improvement) were evaluated at all visits. […]
Continuous secondary efficacy endpoints (CGI-I, CGI-S, SCOPA, and EQ-5D-5L) were analyzed using similar MMRM models as for the primary efficacy endpoint, except that the Baseline value of the endpoint being analyzed was included in the model as a covariate instead of the Baseline HAMD-17 total score. […]

The test system is the same in data set [2]. Nature of the data set: Adverse events, open-label study in Parkinson's disease and depression. The note with it: of the first 31 patients; most common falls, UTI, diarrhea, nausea. In kind it is in vivo, human.
From the text: as §1
Adverse events were classified into standard terminology using the Medical Dictionary for Regulatory Activities (MedDRA). Treatment-emergent adverse events (TEAEs), TEAEs leading to discontinuation, TEAEs related to study drug, TEAEs by maximum severity, serious adverse events (SAEs), and SAEs related to study drug were summarized.

With `CC(C)COc1ccc(CNC(=O)N(Cc2ccc(F)cc2)C2CCN(C)CC2)cc1` [pimavanserin, N-(4-Fluorophenylmethyl)-N-(1-methylpiperidin-4-yl)-N′-(4-(2-methylpropyloxy)phenylmethyl)carbamide], in data set [1], the “SCOPA-Daytime Sleepiness change from Baseline to Week 8” value was −2.1 (0.4), the “SCOPA-Global Sleep Quality change from Baseline to Week 8” value was −1.0 (0.4) and the “SCOPA-Nighttime Sleep change from Baseline to Week 8” value is −2.1 (0.7). Moreover, in data set [2], the “patients reporting adverse events” value is listed as 13.
